Data published in publication PMC9959716, “Borate Transporters and SLC4 Bicarbonate Transporters Share Key Functional Properties” (Membranes, 2023).

Columns and labels:
ScBor1p = target: T1, ScBor1p (Saccharomyces cerevisiae, UniProt P53838); assay: curcumin spectrophotometric quantification of intracellular borate (efflux) in yeast lysates; assay type: cell-based; conditions: 1 mM boric acid for 90 min
T1 construct: gene BOR1; full length, C-terminal deca-histidine tag, pRS423-derived plasmid, GAL1 promoter, expressed in S. cerevisiae BTSY2 (bor1 deletion)
T1 sequence (P53838 1-576): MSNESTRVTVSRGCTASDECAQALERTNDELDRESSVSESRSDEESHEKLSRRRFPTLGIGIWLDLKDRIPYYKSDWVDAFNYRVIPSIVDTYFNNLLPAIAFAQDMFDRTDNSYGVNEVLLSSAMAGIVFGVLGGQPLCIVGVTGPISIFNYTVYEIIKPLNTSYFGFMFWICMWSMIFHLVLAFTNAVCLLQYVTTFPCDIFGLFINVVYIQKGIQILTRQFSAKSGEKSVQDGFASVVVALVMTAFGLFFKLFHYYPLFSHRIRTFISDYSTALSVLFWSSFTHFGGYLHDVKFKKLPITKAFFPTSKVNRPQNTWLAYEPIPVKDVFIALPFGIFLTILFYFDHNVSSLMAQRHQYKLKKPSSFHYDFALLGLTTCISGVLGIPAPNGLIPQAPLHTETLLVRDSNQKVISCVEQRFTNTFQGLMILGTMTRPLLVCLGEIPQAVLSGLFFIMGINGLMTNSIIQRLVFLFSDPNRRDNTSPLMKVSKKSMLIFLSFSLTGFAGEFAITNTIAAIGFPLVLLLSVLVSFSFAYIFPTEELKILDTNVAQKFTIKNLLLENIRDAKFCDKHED

[1] = target: the molecule itself; assay: cross-linking; purified ScBor1p reconstituted into PC (16:0/18:1) proteoliposomes, 1:20 protein:lipid (w:w), detergent removed with Bio-beads; 0.15% glutaraldehyde, 5 min, room temperature; 20 mM Mes pH 6.5, 100 mM NaCl, 2% glycerol; control with 5 min pre-treatment with 2% SDS

Row | Molecule | curcumin spectrophotometric quantification of intracellular borate (efflux) in y (ScBor1p) | binding result [1]
1 | OB(O)O [borate] | Quantification of borate efflux activity in yeast cells expressing each indicated protein | –
2 | S. cerevisiae borate transporter Bor1p (natural protein, UniProt P53838 1-576, looked up, Borate transporter Bor1p of S. cerevisiae, wild type; Membrane protein; Monomer-dimer equilibrium; dimer promoted by lipids; also called ScBor1p; source: reconstituted into PC or PG proteoliposomes) MSNESTRVTVSRGCTASDECAQALERTNDELDRESSVSESRSDEESHEKLSRRRFPTLGIGIWLDLKDRIPYYKSDWVDAFNYRVIPSIVDTYFNNLLPAIAFAQDMFDRTDNSYGVNEVLLSSAMAGIVFGVLGGQPLCIVGVTGPISIFNYTVYEIIKPLNTSYFGFMFWICMWSMIFHLVLAFTNAVCLLQYVTTFPCDIFGLFINVVYIQKGIQILTRQFSAKSGEKSVQDGFASVVVALVMTAFGLFFKLFHYYPLFSHRIRTFISDYSTALSVLFWSSFTHFGGYLHDVKFKKLPITKAFFPTSKVNRPQNTWLAYEPIPVKDVFIALPFGIFLTILFYFDHNVSSLMAQRHQYKLKKPSSFHYDFALLGLTTCISGVLGIPAPNGLIPQAPLHTETLLVRDSNQKVISCVEQRFTNTFQGLMILGTMTRPLLVCLGEIPQAVLSGLFFIMGINGLMTNSIIQRLVFLFSDPNRRDNTSPLMKVSKKSMLIFLSFSLTGFAGEFAITNTIAAIGFPLVLLLSVLVSFSFAYIFPTEELKILDTNVAQKFTIKNLLLENIRDAKFCDKHED | – | binds
